Reference: paper PMC9133015 (Nature Communications, 2022)
“And” between values parts separate entries of the source, which are not always exact repeats. Equal entries are not always repeated.

What was measured:
Format in all cases: cell-based, human
[1] = system: PC-3 cells; assay: Colony formation assay; settings: replicates
[2] = system: PC-3 cells; assay: Apoptosis assay (Annexin V-APC/PI flow cytometry); settings: for Apoptosis (%): PC-3, replicates
[3] = system: DU145 cells; assay: Apoptosis assay (Annexin V-APC/PI flow cytometry); settings: for Apoptosis (%): replicates
[4] = system: 22Rv1 cells; assay: Apoptosis assay (Annexin V-APC/PI flow cytometry); settings: for Apoptosis (%): replicates
[5] = system: PC-3 cells; assay: Cell growth assay (5-day course); settings: for Relative proliferation rate mean / Relative proliferation rate / optical density: PC-3; for Relative proliferation rate / optical density: replicates
[6] = system: DU145 cells; assay: Cell growth assay (5-day course)
[7] = system: 22Rv1 cells; assay: Cell growth assay (5-day course)

CCN1CCN(C(=O)c2ccc(Nc3ncc(F)c(-c4ccc5nc(N(C)C)sc5c4)n3)nc2)CC1 [YK-2-69]
Colony formation (cell number) ([1]; 1 µM): 40 cell number and 45 cell number and 35 cell number
Colony formation (cell number) ([1]; 2 µM): 10 cell number and 12 cell number and 9 cell number
Colony formation (cell number) ([1]; 4 µM): 5 cell number and 6 cell number
Apoptosis (%) ([2]; 0.5 µM): 5.98% and 6.29% and 6.68%
Apoptosis (%) ([2]; 1 µM): 7.85% and 8.04% and 8.54%
Apoptosis (%) ([2]; 2 µM): 12.28% and 13.62% and 14.23%
apoptosis (in words) ([2]; PC-3 cells, concentration-dependent): significant increase of the apoptotic cell population
Apoptosis (%) ([3]; DU145, 2 μM): 9.32% and 10.11% and 8.62%
Apoptosis (%) ([3]; DU145, 4 μM): 11.15% and 12.55% and 13.62%
Apoptosis (%) ([3]; DU145, 8 μM): 26.62% and 31.08% and 30.25%
apoptosis (in words) ([3]; DU145 cells, concentration-dependent): significant increase of the apoptotic cell population
Apoptosis (%) ([4]; 22Rv1, 0.5 μM): 10.56% and 11.41% and 12.03%
Apoptosis (%) ([4]; 22Rv1, 1 μM): 18.52% and 20.96% and 19.24%
Apoptosis (%) ([4]; 22Rv1, 2 μM): 26.56% and 24.71% and 24.31%
apoptosis (in words) ([4]; 22Rv1 cells, concentration-dependent): significant increase of the apoptotic cell population
Relative proliferation rate mean ([5]; 1 µM, day 0): 1
Relative proliferation rate ([5]; 1 µM, day 0): 1
optical density ([5]; 1 µM, day 0): 0.270
Relative proliferation rate mean ([5]; 1 µM, day 1): 1.314
Relative proliferation rate ([5]; 1 µM, day 1): 1.339 and 1.335 and 1.268
optical density ([5]; 1 µM, day 1): 0.361 and 0.36 and 0.342
Relative proliferation rate mean ([5]; 1 µM, day 2): 1.774
Relative proliferation rate ([5]; 1 µM, day 2): 1.713 and 1.81 and 1.799
optical density ([5]; 1 µM, day 2): 0.462 and 0.488 and 0.485
Relative proliferation rate mean ([5]; 1 µM, day 3): 3.173
Relative proliferation rate ([5]; 1 µM, day 3): 3.23 and 3.148 and 3.141
optical density ([5]; 1 µM, day 3): 0.871 and 0.849 and 0.847
Relative proliferation rate mean ([5]; 1 µM, day 4): 6.7021
Relative proliferation rate ([5]; 1 µM, day 4): 6.623 and 6.6712 and 6.812
optical density ([5]; 1 µM, day 4): 1.786 and 1.799 and 1.837
Relative proliferation rate mean ([5]; 2 µM, day 0): 1
Relative proliferation rate ([5]; 2 µM, day 0): 1
optical density ([5]; 2 µM, day 0): 0.273
Relative proliferation rate mean ([5]; 2 µM, day 1): 1.2692
Relative proliferation rate ([5]; 2 µM, day 1): 1.28 and 1.295 and 1.233
optical density ([5]; 2 µM, day 1): 0.35 and 0.354 and 0.337
Relative proliferation rate mean ([5]; 2 µM, day 2): 1.697
Relative proliferation rate ([5]; 2 µM, day 2): 1.752 and 1.668 and 1.672
optical density ([5]; 2 µM, day 2): 0.479 and 0.456 and 0.457
Relative proliferation rate mean ([5]; 2 µM, day 3): 2.625
Relative proliferation rate ([5]; 2 µM, day 3): 2.612 and 2.575 and 2.688
optical density ([5]; 2 µM, day 3): 0.714 and 0.704 and 0.735
Relative proliferation rate mean ([5]; 2 µM, day 4): 5.619
Relative proliferation rate ([5]; 2 µM, day 4): 5.662 and 5.571 and 5.625
optical density ([5]; 2 µM, day 4): 1.548 and 1.523 and 1.538
Relative proliferation rate mean ([5]; 4 µM, day 0): 1
Relative proliferation rate ([5]; 4 µM, day 0): 1
optical density ([5]; 4 µM, day 0): 0.274
Relative proliferation rate mean ([5]; 4 µM, day 1): 1.161
Relative proliferation rate ([5]; 4 µM, day 1): 1.103 and 1.191 (2×)
optical density ([5]; 4 µM, day 1): 0.302 and 0.326 (2×)
Relative proliferation rate mean ([5]; 4 µM, day 2): 1.646
Relative proliferation rate ([5]; 4 µM, day 2): 1.545 and 1.706 and 1.687
optical density ([5]; 4 µM, day 2): 0.423 and 0.467 and 0.462
Relative proliferation rate mean ([5]; 4 µM, day 3): 1.9905
Relative proliferation rate ([5]; 4 µM, day 3): 2.023 and 1.947 and 2.001
optical density ([5]; 4 µM, day 3): 0.554 and 0.533 and 0.548
Relative proliferation rate mean ([5]; 4 µM, day 4): 3.8824
Relative proliferation rate ([5]; 4 µM, day 4): 3.992 and 3.985 and 3.671
optical density ([5]; 4 µM, day 4): 1.093 and 1.091 and 1.005
cell proliferation, 5-day course/colony (in words) ([5]; PC-3 cells, dose-dependent): significantly inhibited the cell proliferation
Relative proliferation rate mean ([6]; DU145, 4 μM, day 1): 1.572
Relative proliferation rate mean ([6]; DU145, 4 μM, day 2): 2.148
Relative proliferation rate mean ([6]; DU145, 4 μM, day 3): 4.361
Relative proliferation rate mean ([6]; DU145, 4 μM, day 4): 5.61
Relative proliferation rate mean ([6]; DU145, 8 μM, day 1): 1.538
Relative proliferation rate mean ([6]; DU145, 8 μM, day 2): 2.008
Relative proliferation rate mean ([6]; DU145, 8 μM, day 3): 3.775
Relative proliferation rate mean ([6]; DU145, 8 μM, day 4): 4.448
Relative proliferation rate mean ([6]; DU145, 12 μM, day 1): 1.322
Relative proliferation rate mean ([6]; DU145, 12 μM, day 2): 1.207
Relative proliferation rate mean ([6]; DU145, 12 μM, day 3): 1.763
Relative proliferation rate mean ([6]; DU145, 12 μM, day 4): 2.506
cell proliferation, 5-day course/colony (in words) ([6]; DU145 cells, dose-dependent): significantly inhibited the cell proliferation
Relative proliferation rate mean ([7]; 22Rv1, 0.5 µM, day 1): 1.179
Relative proliferation rate mean ([7]; 22Rv1, 0.5 µM, day 2): 1.871
Relative proliferation rate mean ([7]; 22Rv1, 0.5 µM, day 3): 2.62
Relative proliferation rate mean ([7]; 22Rv1, 0.5 µM, day 4): 3.018
Relative proliferation rate mean ([7]; 22Rv1, 1 µM, day 1): 1.007
Relative proliferation rate mean ([7]; 22Rv1, 1 µM, day 2): 1.59
Relative proliferation rate mean ([7]; 22Rv1, 1 µM, day 3): 1.919
Relative proliferation rate mean ([7]; 22Rv1, 1 µM, day 4): 2.135
Relative proliferation rate mean ([7]; 22Rv1, 2 µM, day 1): 0.9977
Relative proliferation rate mean ([7]; 22Rv1, 2 µM, day 2): 1.414
Relative proliferation rate mean ([7]; 22Rv1, 2 µM, day 3): 1.775
Relative proliferation rate mean ([7]; 22Rv1, 2 µM, day 4): 1.902
cell proliferation, 5-day course/colony (in words) ([7]; 22Rv1 cells, dose-dependent): significantly inhibited the cell proliferation
